# Where two headings read alike, the source gives them in different places.
# How the values were obtained:
# [1] = test system: E. coli ATCC 25922; assay: Time-kill assay; type: cell-based, Escherichia coli; settings: 2 × MIC ('1 × MIC and 2 × MIC, respectively' for E19 and ATCC 25922), 1.0×10^6 CFU/mL, 37°C, colony counts
# Description: (§1) The time-kill kinetics of MR-22 on E. coli were determined following the protocol described by ([Lu et al., 2022]). The bacterial suspensions (1.0×10^6 CFU/mL) were mixed with different concentrations of MR-22, then cultured at 37°C. The final concentrations of MR-22 ranged 1, 2, 4 ×MIC. At 0, 1, 2, 4, 6, 12, and 24 h, 10 μL aliquot samples were diluted in 90 μL PBS and 5 μL aliquot of the dilutions was spread onto LB agar plates. After incubation at 37°C for 24 h, the colony counts were determined and the time-killing curve was plotted.
# [2] = test system: E. coli E19; assay: Time-kill assay; type: cell-based, Escherichia coli; settings: 1 × MIC ('1 × MIC and 2 × MIC, respectively' for E19 and ATCC 25922), 1.0×10^6 CFU/mL, 37°C, colony counts
# Description: as §1
# [3] = test system: E. coli ATCC 25922; type: cell-based, Escherichia coli
# Description: (§2) In order to study the activity of MR-22 in high-salt concentration, mice serum, different temperatures or trypsin, MIC once again conducted tests as described above.
# […] The resulting solutions were subjected to MIC testing to evaluate any alterations in the antimicrobial activity of MR-22.
# (§3) To assess the thermal stability of MR-22, it was subjected to various temperatures (40°C, 60°C, 80°C, and 100°C) for 30 min. Then, reducing to room temperature, and the MIC was subsequently determined.
# (§4) MR-22 was mixed with a solution containing 1 μg/ml of trypsin and incubated at 37°C for 2 to 12h. Then, trypsin inactivation was carried out at 60°C for 30 min. The antimicrobial activity of the samples was tested to assess the activity of MR-22 and its analogs after the treatment by trypsin. The untreated MR-22 served as the control group for comparative analysis.
# [4] = test system: E. coli E19; type: cell-based, Escherichia coli
# Description: as §2
# E. coli ATCC 25922 and E19 were incubated in different concentrations MR-22 in MHB with 150 mM NaCl, 2 mM CaCl2, 10% mice serum and 10% FBS in 96-well plates and cultured at 37°C for 16 h. The resulting solutions were subjected to MIC testing to evaluate any alterations in the antimicrobial activity of MR-22.
# as §3, §4
# [5] = test system: E. coli ATCC 25922; type: cell-based, Escherichia coli; settings: 1 μg/ml trypsin, 37°C, mean ± SD
# Description: as §4
# [6] = test system: E. coli E19; type: cell-based, Escherichia coli; settings: 1 μg/ml trypsin, 37°C, mean ± SD
# Description: as §4
# [7] = test system: E. coli ATCC 25922; assay: Membrane permeability assay (PI, flow cytometry); type: cell-based, Escherichia coli; settings: 1 h, untreated 0.79%
# Description: (§5) According to the previously described method ([Fadhel Abbas Albaayit et al., 2022]), bacterial suspensions were diluted with PBS to concentration of 1.0×10^6 CFU/mL. […] 10 μM of propidium iodide (PI; Sigma, US) was added to each group and incubated at 37°C for 15 min in the dark. The samples were analyzed using a CytoFLEX flow cytometry (Beckman Coulter, USA), and the positive rate of PI was utilized as an indicator of bacterial membrane permeability.
# [8] = test system: E. coli E19; assay: Membrane permeability assay (PI, flow cytometry); type: cell-based, Escherichia coli; settings: 1 h, untreated 2.13%
# Description: as §5
# [9] = test system: E. coli ATCC 25922 and E19; assay: Intracellular ATP determination; type: cell-based, Escherichia coli; settings: MR-22 1, 2, 4 × MIC, 1 h, 37°C; compared to the control group; dose-dependent
# Description: The MR-22 solution was added to bacterial suspensions (1.0 × 10^6 CFU/mL) at different final concentrations (1, 2, 4 × MIC) incubated at 37°C for 1 h. The mixture was subsequently centrifuged and the resulting supernatants were collected. Finally, the intracellular ATP concentration was determined using an ATP Assay Kit (Beyotime, China) according to the manufacturer’s instruction.
# [10] = test system: E. coli E19; assay: Mice peritonitis model; type: in vivo; settings: C57BL/6J mice
# Description: This study utilized female C57BL/6J mice aged 6-8 weeks, weight range of 18-20 g, which were obtained from SPF Biotechnology Co., Ltd (Beijing, China). The animals were housed under maintained on a standard 12 h light/12 h dark cycle. All animal experiments were conducted in accordance with the Ethical Principles in Animal Research adopted by Guizhou Medical University and were approved by the Institutional Animal Care and Use Committee.
# To evaluate the in vivo efficacy of MR-22, we used a mice peritonitis model. A total of 60 mice were divided into three groups: treatment group (10 mg/kg MR-22, intraperitoneal injection), positive control group (10 mg/kg imipenem, intraperitoneal injection), and normal control group (PBS, intraperitoneal injection). Peritonitis was induced by intraperitoneal injection of 1.0 × 10^8 CFU bacterial inoculum in 0.2 mL of E. coli E19. Survival rates were recorded every 12 h for 7 days.
# To study the protective effects of MR-22, 10 mice in each group were sacrificed, and peritoneal lavage fluid, blood, liver, and kidney were collected 36 h after administration. The number of colonies in peritoneal lavage fluid and blood were determined by culturing on LB agar, while the tissues were fixed in 4% paraformaldehyde and subjected to hematoxylin and eosin staining to study the morphology.
substance,measurement,setting,value
H-MAKRRKKAKKKAKKAKKRRRRR-NH2 [MR-22],time to eliminate the bacteria (time-kill),[1],≤ 2 h
same,time to eliminate the bacteria (time-kill),[2],≤ 2 h
same,"MIC, 150 μM Na^+","[3]; ATCC 25922, 16 h",256 µg/mL
same,"MIC, 10% FBS","[3]; ATCC 25922, 16 h",16 µg/mL
same,"MIC, 10% Serum","[3]; ATCC 25922, 16 h",64 µg/mL
same,"MIC, 40°C 30 min","[3]; ATCC 25922, 16 h",16 µg/mL
same,"MIC, 60°C 30 min","[3]; ATCC 25922, 16 h",16 µg/mL
same,"MIC, 80°C 30 min","[3]; ATCC 25922, 16 h",16 µg/mL
same,"MIC, 100°C 30 min","[3]; ATCC 25922, 16 h",16 µg/mL
same,"MIC, Control","[3]; ATCC 25922, 16 h",16 µg/mL
same,"MIC, 1 μg/mL Trypsin","[3]; E. coli ATCC 25922, MR-22 incubated with 1 μg/ml trypsin at 37°C (2 to 12 h), trypsin inactivated 60°C 30 min",>256 µg/mL
same,"MIC, 150 μM Na^+","[4]; E19, 16 h",256 µg/mL
same,"MIC, 10% FBS","[4]; E19, 16 h",32 µg/mL
same,"MIC, 10% Serum","[4]; E19, 16 h",128 µg/mL
same,"MIC, 40°C 30 min","[4]; E19, 16 h",32 µg/mL
same,"MIC, 60°C 30 min","[4]; E19, 16 h",32 µg/mL
same,"MIC, 80°C 30 min","[4]; E19, 16 h",32 µg/mL
same,"MIC, 100°C 30 min","[4]; E19, 16 h",32 µg/mL
same,"MIC, Control","[4]; E19, 16 h",32 µg/mL
same,"MIC, 1 μg/mL Trypsin","[4]; E. coli E19, MR-22 incubated with 1 μg/ml trypsin at 37°C (2 to 12 h), trypsin inactivated 60°C 30 min",>256 µg/mL
same,Rate of inhibition after incubation with trypsin,[5]; 4 h,22.32 ± 1.71%
same,Rate of inhibition after incubation with trypsin,[5]; 8 h,3.40 ± 0.26%
same,Rate of inhibition after incubation with trypsin,[5]; 10 h,1.85 ± 0.18%
same,Rate of inhibition after incubation with trypsin,[5]; 12 h,1.33 ± 0.22%
same,Rate of inhibition after incubation with trypsin,[6]; 4 h,17.74 ± 2.88%
same,Rate of inhibition after incubation with trypsin,[6]; 8 h,5.41 ± 1.20%
same,Rate of inhibition after incubation with trypsin,[6]; 10 h,4.49 ± 1.54%
same,Rate of inhibition after incubation with trypsin,[6]; 12 h,0.64 ± 0.46%
same,PI fluorescence signals (PI-positive cells),[7]; 1 × MIC,9.19%
same,PI fluorescence signals (PI-positive cells),[7]; 2 × MIC,39.10%
same,PI fluorescence signals (PI-positive cells),[7]; 4 × MIC,53.20%
same,percentage of PI-positive cells,[8]; 1 × MIC,7.83%
same,percentage of PI-positive cells,[8]; 2 × MIC,14.35%
same,percentage of PI-positive cells,[8]; 4 × MIC,25.14%
same,intracellular ATP concentration,[9],significantly reduced
same,bacterial content in the peritoneal lavage fluid,"[10]; E19 peritonitis, 10 mg/kg 1 h after infection, after 36 h, ten mice per group, control group 8.73 ± 0.38",7.23 ± 0.36 Log10CFU/mL
same,72-h survival rate,"[10]; peritonitis by 1.0 × 10^8 CFU E. coli E19 i.p., 10 mg/kg intraperitoneal injection, infected group 0%",40%
